Results: patent US20230107128A1, “SCREENING SYSTEM FOR HUMAN-TRANSFORMED CARTILAGE CELL LINE-BASED CARTILAGE DISEASE TREATMENT AGENTS” (LUGEN SCI CO., LTD., priority 2018, published 2023)
Entries after “also recorded” stand apart in the source; their conditions may differ. Where two headings read alike, the source gives them in different places.

What was measured:
[1] = test system: human type II collagen fusion promoter (Col2a1 promoter); experiment: Luciferase reporter screening system in C28/I2-EC2P-fLuc-CN5 cell line; assay type: cell-based; settings: for cartilage regeneration activity (luminescence) compared with Kartogenin; criterion equal to or higher than Kartogenin: 50 μM, 48 hours, screen of 37 natural products
Method: All the experimental groups for the verification of the screening system according to the present invention and the search for novel cartilage regeneration materials were prepared by dissolving the same in dimethyl sulfoxide (DMSO) at the same concentration of 20 mM. The cells to be analyzed were seeded and fixed into a white-bottom 96-well plate, which was a plate exclusively used for luminescence analysis, at an initial concentration of 10,000 cells per well 24 hours before the experiment. On the following day, the cells were subjected to starvation in serum-free culture fluid (DMEM/F12 media) for seven hours. After that, while the culture fluid was replaced with the serum culture fluid [DMEM/F12, 10% FBS, 1% penicillin, and streptomycin], the experimental groups on natural products at each 20 mM were diluted 1/400, treated repeatedly three times, and further cultured for 48 hours.
After further culturing the cells to be analyzed, which were treated with natural materials in above 5.1, for 48 hours, all the culture fluid was removed and replaced with a new culture fluid containing D-luciferin at a final concentration of 150 μg/ml and reacted at room temperature for five minutes. Then, the degree of light emission from each cell was measured by using the luminescence analysis function of the TECAN SPARK multi-reader.
By using the screening system for cartilage disease treatment agents according to the present invention, the pattern of changes in cartilage regeneration activity according to the treatment concentration of 2-AQCA was compared with the activity of Kartogenin, a positive control group of natural material.

[2] = test system: Col10a1; experiment: Rq-PCR of Col10a1 expression in C28/I2 micromass culture; assay type: cell-based, human; settings: 10 μM, 14 days micromass culture
Method: (§1) C28/I2 cell lines were subjected to micromass culture in order to compare and examine the change in the expression of Col2a1 and Sox9, which are the representative cartilage differentiation markers, and Col10, which is a cartilage hypertrophy marker, by treatment with the complex functional natural material 2-AQCA during long-term culture for inducing cartilage differentiation. For this purpose, the C28/I2 cells cultured for three days were collected and a cell fluid was prepared at a concentration of 2×10^7 cells/ml, and then 10 μl of cells were taken and injected into the center of a 24-well plate, and fixed in an incubator of 37° C., 5% CO2 for two to three hours until all the cells were attached to the bottom. When all the cells were fixed, 500 μl of serum culture fluid (DMEM/F12, 10% FBS, 1% penicillin, and streptomycin) was added and further cultured for seven hours or more. […]
(§2) After completing the micromass culture for 14 days, RNA was isolated from each cell pellet by using TRIzol™, and cDNA was synthesized from the isolated RNA. The synthesized cDNA was compared and analyzed for expression of the corresponding gene through a real-time quantitative polymerase chain reaction (Rq-PCR) by using a specific primer for each gene. […]

[3] = test system: Sox9; experiment: Rq-PCR of Sox9 expression in C28/I2 micromass culture; assay type: cell-based, human; settings: 10 μM, 14 days micromass culture
Method: as §1, §2

[4] = test system: C28/I2 cell line; assay type: cell-based, human
Method: To confirm the effect of 2-AQCA on inhibiting a cell growth rate and the presence of toxicity, the cells to be analyzed (C28/I2 cell line and chondrocytes isolated from osteoarthritis patients) were seeded and fixed at an initial concentration of 10,000 cells per well in a 96-well plate 24 hours before the experiment, and the cells were subjected to starvation in serum-free culture fluid for seven hours on the following next day. After that, while the culture fluid was replaced with a serum culture fluid containing 10% FBS, the experimental groups were treated repeatedly three times with Kartogenin and 2-AQCA at each concentration and further cultured for 48 hours. The cells were treated with the test materials at each concentration of 0, 3.125, 6.25, 12.5, and 25 μM, which had been used to verify the effect of treatment at each of the concentrations. Similarly, in order to equalize the experimental conditions, the treatment was performed so that the final concentration of DMSO was 0.25% in all the experimental groups. […] Then, the absorbance of each cell was measured at 450 nm by using a TECAN SPARK multi-reader.

[5] = test system: Col2a1; experiment: Rq-PCR of Col2a1 expression in C28/I2 micromass culture; assay type: cell-based, human; settings: 10 μM, 14 days micromass culture
Method: as §1, §2

[6] = C28/I2-EC2P-fLuc-CN5, drug 0 to 50 μM

Cn1ncc2c1-c1c(Oc3ccc(OCc4ccc5ccccc5n4)cc3)sc(C(N)=O)c1CC2 [TD-198946]
cartilage regeneration activity (luminescence) compared with Kartogenin; criterion equal to or higher than Kartogenin [1]: higher than that of Kartogenin
luciferase activity compared with Kartogenin [1, 6]: higher than that of Kartogenin
luciferase activity with increasing concentration [1, 6]: increased as the concentration of both drugs is increased; also recorded: continuously increases the luciferase activity

O=C(O)c1ccccc1C(=O)Nc1ccc(-c2ccccc2)cc1 [Kartogenin]
decrease in Col10a1 expression compared to the negative control group [2]: about 40%
luciferase activity at 50 μM ([1]; C28/I2-EC2P-fLuc-CN5, 50 μM): decreases the luciferase activity
luciferase activity with increasing concentration [1, 6]: increased as the concentration of both drugs is increased
cytotoxicity indirectly suggested by the luciferase activity ([1]; high concentration (50 μM)): has cytotoxicity at a high concentration
Sox9 expression relative to the negative control group [3]: insignificant increase

O=C(O)c1ccc2c(c1)C(=O)c1ccccc1C2=O [2-AQCA, 2-anthraquinonecarboxylic acid]
decrease in Col10a1 expression compared to the negative control group [2]: about 40%
cartilage regeneration activity compared with Kartogenin ([1]; 25 μM): slightly higher than that of Kartogenin
cartilage regeneration activity (luminescence) compared with Kartogenin; criterion equal to or higher than Kartogenin [1]: complies with the above conditions
cartilage regeneration activity compared with Kartogenin ([1]; concentration of less than 25 μM): somewhat lower than that of Kartogenin
Sox9 expression relative to the negative control group [3]: at least 2.1 times
cell growth rate higher than that of Kartogenin ([4]; C28/I2, 6.25 μM): about 11%
cell growth rate higher than that of Kartogenin ([4]; C28/I2, 12.5 μM): about 8.2%
Col2a1 expression rate relative to the Kartogenin group [5]: about 4.2 times
Col2a1 expression rate relative to the negative control group [5]: 7.6 times
